Assay results published in patent US10280218B2, “Antibodies binding to BMP4, and uses thereof” (ACADEMISCH MEDISCH CENTRUM, priority 2014, dated 2019).

T1: BMP5 (Homo sapiens, UniProt P22003)
T1 sequence (P22003 317-454): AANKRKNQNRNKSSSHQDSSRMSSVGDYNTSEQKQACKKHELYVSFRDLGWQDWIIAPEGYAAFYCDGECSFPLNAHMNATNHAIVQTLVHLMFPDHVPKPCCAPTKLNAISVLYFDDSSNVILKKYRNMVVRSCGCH

T2: BMP2 (Homo sapiens, UniProt P12643)
T2 sequence (P12643 283-396): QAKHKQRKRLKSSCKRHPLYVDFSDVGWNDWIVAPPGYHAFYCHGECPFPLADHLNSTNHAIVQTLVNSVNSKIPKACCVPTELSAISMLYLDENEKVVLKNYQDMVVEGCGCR


What was measured:
Experiment in all cases: BMP activity luciferase reporter assay (BRE-luciferase, ID1 promoter) in C2C12 cells
[1] = tested on: human BMP4; assay type: cell-based, mouse; settings: LDN 0.5 μM, DMH1 0.2 μM; for specificity / selectivity across BMP2, 4, 5, 6, 7, 9, 10, 12: VHH 500 ng/ml
Experimental: (§1) One of the most studied BMP target genes is the Inhibitor of Differentiation 1 (ID1). This is an immediate early gene that is activated by binding of the phosphorylated SMADs to its promoter region (López-Rovira et al., 2002). Thus, we employed the BMP-responsive C2C12 cells, which are stably transfected with the BRE-luciferase vector containing the BMP-Responsive-Element (the mouse ID1 promoter) cloned into the pGL3 luciferase vector (Zilberberg 2007). […] C2C12 cells were treated with the different BMPs with or without our VHHs or human Noggin at a concentration of 5 μg/ml. Luciferase activity was measured after 16 hours incubation. Most of the transcriptional data is in concordance with the results obtained with the phosphorylation of SMAD1/5/8.
(§2) C2C12 cells were plated in 96-well plates at 5×10^3 cells/well and cells were allowed to attach overnight. 100 μl of DMEM with 0.1% BSA were added in each well. VHH antibodies and human Fc-Noggin at the indicated concentrations were added at the same time. Wells with unstimulated cells were added as controls. Cells were treated in triplicate with the BMPs at the indicated concentrations for 16 hours. Luciferase activity was measured by adding 100 μl of luciferase substrate solution from the Bright-Glo™ Luciferase Assay System (Promega Benelux, Leiden, The Netherlands). After 3 minutes of incubation, luciferase activity was measured with Synergy HT Multi-Mode Microplate Reader (Biotek, Winooski, Vt., United States). Luciferase values were normalized to background activity (activity of wells with no cells) and represented as ratio to the activity of BMP-stimulated cells.
(§3) To evaluate the extent of this increase in potency, the IC50 of the different VHHs were determined in a dose-dependent inhibition assay in C2C12 cells (FIG. 25). C2C12 cells were plated in 96-well plates at 5×10^3 cells/well and cells were allowed to attach overnight 100 μl of DMEM with 0.1% BSA were added in each well. VHH antibodies were added at the indicated concentrations at the same time as 5 ng/ml BMP4 (FIG. 25A-B, D) or 50 ng/ml of BMP2 (FIG. 25C,D). Luciferase activity was measured after 16 hours. Values are represented as ratio to the activity of BMP-stimulated cells. […] However, its effects were more striking for BMP2 rather than BMP4 inhibition. […] The IC50 values for BMP4 inhibition observed in our VHHs are considerably lower than those observed for anti-BMP4 commercially available from R&D (Katagiri et al 1994) and those described in WO_2008/030611.
(§4) C2C12 cells were cultured in 96-well plates at 5×10^3 cells/well. After overnight attachment cells were stimulated with 10 ng/ml hBMP4 (Cat No. 314-BP-020; R&D Systems), 50 ng/ml hBMP2 (Cat No. 355-BM-010; R&D Systems), 200 ng/ml hBMP5 (Cat No. 615-BMC-020; R&D Systems), 50 ng/ml hBMP6 (Cat No. 506-BP-020; R&D Systems), 200 ng/ml hBMP7 (Cat No. 354-BP-010; R&D Systems), 25 ng/ml hBMP9 (Cat No. 3209-BP-010; R&D Systems), 25 ng/ml hBMP10 (Cat No. 2926-BP-025; R&D Systems), 50 ng/ml hBMP12 (Cat No. 779-G7-010; R&D Systems) and with or without VHH antibodies: C4C4 and C8C8 at 500 ng/ml; natural antagonist: mNoggin (Cat No. 1967-NG-025; R&D Systems), hNoggin (Cat No. 6057-NG; R&D Systems) and mGremlin (cat#956-GR-050; R&D Systems) at 500 ng/ml; chemical antagonist: 0.5 μM LDN-193189 (Cat No. 11802; Cayman Chemical) and 0.2 μM DMH1 (Cat No. 57146; Selleckchem).
(§5) VHH efficacy was evaluated by stimulating cells with 10 ng/ml of hBMP4 and 50 ng/ml of hBMP2, with and without increase concentrations (from 0.1-10 μg/ml) of VHH and anti-BMP4 antibodies: clone 66119, clone 3H2, clone M912262, clone PA354-16.1.1, Clone EPR6211, and anti-BMP4 (ab39973). […] Unstimulated cells were used as controls and wells with no cells used to normalize the background activity. […]

[2] = tested on: BMP9; assay type: cell-based, mouse; settings: 25 ng/ml hBMP9, 16 h; LDN 0.5 μM; DMH1 0.2 μM
Experimental: (§6) C2C12 cells were plated in 96-well plates when they reached confluency, cells were treated in triplicate with 25 ng/ml of BMP9, 50 ng/ml of BMP10 or 50 ng/ml of BMP12 (all from R&D Systems), for 16 hours. VHHs or Noggin were added at a concentration of 5 ug/ml. C2C12 cells or HEK293 were plated on 12-well plates and starved for 5 hours, before stimulation with 2 ng/ml of TGF-β (R&D Systems) or 100 ng/ml Activin-A (R&D Systems), respectively. VHHs at the indicated concentrations were added at the same time. After 1 hour cells were lysed, and protein isolation and SDS-PAGE separation were performed as described previously. For protein detection the following antibodies were used: antiphospho-SMAD2 at 1:1000 (Cell Signaling).
as §4

[3] = tested on: BMP10; assay type: cell-based, human; settings: 25 ng/ml hBMP10, 16 h; LDN 0.5 μM; DMH1 0.2 μM
Experimental: as §6
C2C12 cells were cultured in 96-well plates at 5×10^3 cells/well. […]

[4] = biological target: T1, BMP5; assay type: cell-based, mouse; parameters: purchased R&D Systems 615-BMC-020; settings: 200 ng/ml hBMP5, 16 h; VHH, Noggin, Gremlin 500 ng/ml; LDN 0.5 μM; DMH1 0.2 μM
Experimental: as §1
as §2, with “Cells were treated in triplicate with the BMPs at the indicated concentrations for 16 hours.” left out, “Luciferase values were normalized to background activity (activity of wells with no cells) and represented as ratio to the activity of BMP-stimulated cells.” left out

[5] = biological target: T2, BMP2; assay type: cell-based, mouse; settings: 50 ng/ml hBMP2, 16 h; VHH, Noggin, Gremlin 500 ng/ml; LDN 0.5 μM; DMH1 0.2 μM
Experimental: as §1, §2, §3, §4, §5

inhibition of BMP5 signals, comparison of inhibitors [4] | inhibition of BMP-2 signals, comparison of inhibitors [5] | Molecule | specificity / selectivity across BMP2, 4, 5, 6, 7, 9, 10, 12 [1] | inhibition of BMP-9-derived signals, comparison of inhibitors [2] | inhibition of BMP-10-derived signals, comparison of inhibitors [3] | inhibition of BMP4-derived signals, comparison of inhibitors ([1]; 10 ng/ml hBMP4, 16 h, VHH, Noggin, Gremlin 500 ng/ml)
 |  | CC(C)Oc1ccc(-c2cnc3c(-c4ccnc5ccccc45)cnn3c2)cc1 [DMH1] | even less selective than Noggin | shown to inhibit | shown to inhibit | 
 |  | c1ccc2c(-c3cnn4cc(-c5ccc(N6CCNCC6)cc5)cnc34)ccnc2c1 [LDN, LDN-193189] | even less selective than Noggin | shown to inhibit | shown to inhibit | 
greatly inhibit | greatly inhibit | Gremlin: natural BMP antagonist (R&D Systems) (protein) KKKGSQGAIPPPDKAQHNDSEQTQSPPQPGSRTRGRGQGRGTAMPGEEVLESSQEALHVTERKYLKRDWCKTQPLKQTIHEEGCNSRTIINRFCYGQCNSFYIPRHIRKEEGSFQSCSFCKPKKFTTMMVTLNCPELQPPTKKKRVTRVKQCRCISIDLD |  |  |  | greatly inhibit
